Test results: paper PMC4977651, “Molecular features of biguanides required for targeting of mitochondrial respiratory complex I and activation of AMP-kinase” (BMC Biology, 2016)
Several values for one entry are separate records, joined by “and”; a condition that tells them apart may be missing. Identical values can stand only once.

Legend:
AMPK-α (phospho-Thr172) = assay: AMPK activation, western blot of phospho-AMPK-α in MDBK cells; assay type: cell-based, Bos taurus; settings: for p-alpha: band intensity
Method: (§1) MDBK cells were seeded at 1 × 10^6 cells per 6 cm dish in DMEM containing 10 % FBS. […] After 18 h cells were harvested by a rapid lysis procedure: cells were rinsed with PBS, then lysed using ice-cold buffer containing 50 mM HEPES, 1 mM EDTA, 10 % glycerol, 50 mM NaF, 5 mM sodium pyrophosphate, 1 % Triton-X100, 1 mM dithiothreitol (DTT), and a protease inhibitor cocktail (Roche). The cell lysate was centrifuged at 14,000 × g for 20 min at 4 °C and the protein concentration of the supernatant determined by bicinchoninic acid assay. The lysate was analyzed using Novex 3–12 % bis-Tris gels run in 3-(N-morpholino)propanesulfonic acid (MOPS) buffer (20 μg of protein per lane) followed by transfer to low fluorescence polyvinylidene fluoride membranes by wet transfer. Primary rabbit antibodies for AMPK-β (57C12), AMPK-α (phospho-Thr172) (40H9), and acetyl-coA carboxylase (phospho-Ser79) (Cell Signaling Technology) were incubated overnight with the membrane (1:1000 dilution) in Odyssey blocking buffer at 4 °C. A fluorescent secondary antibody was used (IRDYE800CW from LI-COR Biosciences, 1:20,000 dilution) with a LI-COR Odyssey imaging system.

[1] = tested on: bovine mitochondrial membranes (complexes II-III-IV); assay: Succinate:O2 oxidoreduction (complexes II-III-IV, complex II assay) by bovine mitochondrial membranes; assay type: biochemical, Bos taurus; settings: biguanide concentrations set to the IC50 values for NADH:O2 on bovine membranes; control = 100.00; n = 3
Method: Assays were performed at 32 °C in a SpectraMax 96-well plate reader. NADH:decylubiquinone oxidoreduction by complex I at 0.5 μg mL^−1 was measured in 20 mM Tris-HCl (pH 7.2), 0.15 % soy bean asolectin (Avanti Polar Lipids), and 0.15 % 3-((3-cholamidopropyl)dimethylammonium)-1-propanesulfonate (CHAPS, Merck Chemicals Ltd), with 200 μM decylubiquinone and 200 μM NADH, and monitored using ε340–380(NADH) = 4.81 mM^−1 cm^−1 [23]. Catalysis was initiated by addition of NADH and maximal rates determined by linear regression. NADH:O2 oxidoreduction by membranes was measured similarly but using 5 μg mL^−1 membranes in 10 mM Tris-HCl (pH 7.4) and 250 mM sucrose using 200 μM NADH and supplemented with 0.15 mM horse heart cytochrome c (Sigma-Aldrich Ltd.). Succinate:O2 oxidoreduction was measured using 40 μg mL^−1 membranes in 5 mM succinate in 10 mM Tris-HCl (pH 7.4) as described previously. Control experiments included NaCl (to match the ionic strength) or DMSO, as appropriate.

[2] = tested on: acetyl-coA carboxylase (phospho-Ser79); assay: AMPK activation, western blot of phospho-acetyl-coA carboxylase in MDBK cells; assay type: cell-based, Bos taurus; settings: for p-ACC: band intensity
Method: as §1

mouse heart mitochondria = assay: ADP-stimulated rotenone-sensitive OCR in isolated mouse heart mitochondria; assay type: biochemical; design: rotenone sensitive OCR after ADP stimulation, individual replicates / rotenone sensitive OCR after ADP stimulation, average / rotenone sensitive OCR after 15 mins, average: unit not given here
Method: Complex I and mitochondrial membranes were prepared from Bos taurus (bovine) heart. Intact mitochondria were isolated from rat liver and mouse heart and liver. Membranes were prepared from mouse heart mitochondria by 5 s bursts of sonication at 4 °C and collected by centrifugation (75,000 × g, 1 h).
Isolated mitochondria were monitored using a Seahorse XF96 extracellular flux analyzer at 32 °C. Mouse heart mitochondria, and mouse and rat liver mitochondria were plated into XF96 plates at 4 and 16–20 μg per well, respectively, in 220 mM mannitol, 70 mM sucrose, 10 mM KH2PO4, 5 mM MgCl2, 1 mM EGTA, 0.2 % fatty acid-free BSA, and 2 mM HEPES (pH 7.4 at 37 °C) with 10 mM glutamate and 10 mM malate and adhered by centrifugation (2000 × g, 20 min, 4 °C). The medium was supplemented with a further 5 mM glutamate and 5 mM malate and the mitochondria incubated for 15 min. Then two baseline readings were taken before the biguanides were added at IC50/5. […] Rotenone (2 μM) was added at the end of the experiment. Data from wells with failed port injections were excluded from the analyses. The RCR values (state III versus state IV respiration) were 3.4, 4.8, and 4.6 for mouse heart, rat liver, and mouse liver, respectively.

permeabilized 143B cells = assay: ADP-stimulated rotenone-sensitive OCR in permeabilized 143B cells; assay type: cell-based, human; design: rotenone sensitive OCR after ADP stimulation, individual replicates / rotenone sensitive OCR after ADP stimulation, average: unit not given here; settings: 143B permeabilised cells
Method: For permeabilized cell experiments, cells were seeded into XF96 plates at 0.9–1.1 × 10^4 per well and incubated for 48 h at 37 °C in 5 % CO2. Then, the growth medium was exchanged for assay buffer containing 3 nM plasma membrane permeabilizer ‘PMP’ (Seahorse Biosciences Inc.), 10 mM glutamate, 10 mM malate, 220 mM mannitol, 70 mM sucrose, 10 mM KH2PO4, 5 mM MgCl2, 1 mM EGTA, 0.2 % fatty acid-free bovine serum albumin (BSA), and 2 mM HEPES (pH 7.4 at 37 °C). […] The biguanides were allowed to accumulate for 30 min, then respiration was […] by the addition of 4 mM ADP. Rotenone was added (2 μM) at the end of the experiment.
Rotenone-sensitive OCRs were calculated by subtracting the rotenone-insensitive rates (determined at the end of the experiment). OCRs were normalized by dividing by the OCR recorded immediately prior to the addition of biguanide. For rate of uptake calculations, the OCRs at time points after biguanide addition were divided by the OCRs at the same time points in control experiments. Data from wells with failed port injections were excluded from the analyses. The respiratory control ratio (RCR) values (state III versus state IV respiration) were ~11 and ~6 for permeabilized MDBK and 143B cells, respectively.

[3] = Averages of experiments 1-3, 18 hours

## CC(C)N=C(N)N=C(N)N [compound 4, 1-(diaminomethylidene)-2-(propan-2-yl)guanidine]
AMPK-α (phospho-Thr172); [3]
  p-alpha, average normalised to control: 12.85
AMPK-α (phospho-Thr172); Experiment 1, 18 hours
  p-alpha / AMPK beta: 1.65
  p-alpha / AMPK beta normalised to control: 13.27
  p-alpha: 732
AMPK-α (phospho-Thr172); Experiment 2, 18 hours
  p-alpha / AMPK beta: 1.91
  p-alpha / AMPK beta normalised to control: 13.08
  p-alpha: 500
AMPK-α (phospho-Thr172); Experiment 3, 18 hours
  p-alpha / AMPK beta: 2.53
  p-alpha / AMPK beta normalised to control: 12.19
  p-alpha: 499
[1]
  Complex II assay (succinate:O2 oxidoreduction), average: 101.59
[2]; [3]
  ACC, average normalised to control: 13.65
[2]; Experiment 1, 18 hours
  p-ACC / AMPK beta: 2.64
  p-ACC / AMPK beta normalised to control: 13.60
  p-ACC: 1170
[2]; Experiment 2, 18 hours
  p-ACC / AMPK beta: 2.65
  p-ACC / AMPK beta normalised to control: 16.42
  p-ACC: 693
[2]; Experiment 3, 18 hours
  p-ACC / AMPK beta: 3.25
  p-ACC / AMPK beta normalised to control: 10.92
  p-ACC: 641
Mouse heart mitochondria; average of replicates
  rotenone sensitive OCR after ADP stimulation, % of control, average: 23.15 % of control
  rotenone sensitive OCR after ADP stimulation, average: 56.07
Mouse heart mitochondria; replicate 1-11
  rotenone sensitive OCR after ADP stimulation, % of control, individual replicates: 28.98 % of control and 23.60 % of control and 23.95 % of control and 23.54 % of control and 25.71 % of control and 23.25 % of control and 16.50 % of control and 19.68 % of control
Mouse heart mitochondria; replicate 1-12
  rotenone sensitive OCR after ADP stimulation, individual replicates: 70.20 and 57.15 and 58.01 and 57.01 and 62.27 and 56.30 and 39.95 and 47.67
Permeabilized 143B cells; average of replicates
  rotenone sensitive OCR after ADP stimulation, % of control, average: 4.94 % of control
  rotenone sensitive OCR after ADP stimulation, average: 11.79
Permeabilized 143B cells; replicate 1-11
  rotenone sensitive OCR after ADP stimulation, % of control, individual replicates: -1.48 % of control and 3.88 % of control and 15.33 % of control and 9.59 % of control and 8.04 % of control and 7.71 % of control and 5.26 % of control and 0.97 % of control and -3.74 % of control and 3.83 % of control
  rotenone sensitive OCR after ADP stimulation, individual replicates: -3.53 and 9.26 and 36.59 and 22.89 and 19.19 and 18.41 and 12.55 and 2.31 and -8.93 and 9.14
